Source: ChEMBL document CHEMBL5370525, “Antibiotics with novel mode of action as new weapons to fight antimicrobial resistance” (Eur J Med Chem, 2023)
Values after ≈ are worked out from the molar mass of the structure shown.

Assays:
Escherichia coli = experiment: Antibacterial activity against Levofloxacin-nonsusceptible Escherichia coli assessed as inhibition of bacterial growth by CLSI-based assay; assay type: functional
Streptococcus pneumoniae = experiment: Antibacterial activity against Levofloxacin-nonsusceptible Streptococcus pneumoniae assessed as inhibition of bacterial growth by CLSI-based assay; assay type: functional
Staphylococcus aureus [1] = experiment: Antibacterial activity against Staphylococcus aureus 456 infected in neutropenic BALB/c mouse model assessed as reduction in lung bacterial load at 1.56 to 400 mg/kg, sc administered every 6 hr and measured after 24 hrs by CLSI-based assay (reference value: 5.6 to 6.3 log10 CFU); assay type: functional; details: dose 1.56-400 mg/kg, pooled result: one value given for 6 cell lines, strains, targets or settings
Staphylococcus aureus [2] = experiment: Antibacterial activity against levofloxacin-resistant Staphylococcus aureus assessed as inhibition of bacterial growth by CLSI-based assay; assay type: functional
Clostridioides difficile [3] = experiment: Antibacterial activity against Clostridium difficile clinical isolates assessed as inhibition of bacterial growth; assay type: functional
[4] = Binding affinity to recombinant Clostridium difficile 630 DNA polymerase IIIC expressed in Escherichia coli Rosetta DE3pLysS cells assessed as inhibition constant incubated for 20 mins; parameters: species or system Clostridioides difficile 630
Clostridioides difficile [5] = experiment: Antibacterial activity against Clostridium difficile clinical isolates assessed as inhibition of bacterial growth incubated for 48 hrs by CLSI-based assay; assay type: functional
[6] = Drug absorption in Syrian hamster infected with Clostridioides difficile at 75 mg/kg, po by LC-MS analysis; assay type: ADME, organism-based, Mesocricetus auratus; details: in vivo, read-out: Drug absorption
Staphylococcus aureus [7] = experiment: Antibacterial activity against Staphylococcus aureus assessed as inhibition of bacterial growth; assay type: functional
Clostridioides difficile [8] = experiment: Antibacterial activity against Clostridium difficile clinical isolates assessed as inhibition of bacterial growth incubated for 44 hrs by CLSI-based broth microdilution assay; assay type: functional
Mycoplasma genitalium = experiment: Antibacterial activity against Mycoplasma genitalium assessed as inhibition of bacterial growth; assay type: functional; details: Mycoplasmoides genitalium
Chlamydia trachomatis = experiment: Antibacterial activity against Chlamydia trachomatis assessed as inhibition of bacterial growth; assay type: functional
Neisseria gonorrhoeae = experiment: Antibacterial activity against Neisseria gonorrhoeae ATCC 49226 assessed as inhibition of bacterial growth by agar dilution method; assay type: functional

With `O=c1ccc2ncc(=O)n3c2n1C[C@H]3CN1CCC(NCc2cc3c(cn2)OCCC3)CC1` [GEPOTIDACIN] the MIC90 (Escherichia coli) was 0.5 µg/mL (≈ 1.11 µM), the MIC90 (Streptococcus pneumoniae) was 0.5 µg/mL (≈ 1.11 µM) and the Activity (Staphylococcus aureus [1]) was 1.4 log10CFU. It also gave an MIC90 (Staphylococcus aureus [2]) of 0.5 µg/mL (≈ 1.11 µM).
`O=c1[nH]c(NCc2ccc(Cl)c(Cl)c2)nc2ncn(CCN3CCOCC3)c12` [IBEZAPOLSTAT] showed an MIC (Clostridioides difficile [3]) of 1 µg/mL (≈ 2.36 µM), a Ki [4] of 325 nM and an MIC50 (Clostridioides difficile [5]) of 2 µg/mL (≈ 4.72 µM). The Fa [6] was 5%.
In the case of `Cc1ncc([N+](=O)[O-])n1CCO` [METRONIDAZOLE], the MIC (Clostridioides difficile [3]) is reported as 0.15 µg/mL (≈ 0.876 µM) and the MIC50 (Clostridioides difficile [5]) is reported as 1 µg/mL (≈ 5.84 µM).
With `Cn1cc(NC(=O)c2cc(NC(=O)c3ccc(/C=C/c4cnc5ccccc5c4)cc3)cn2C)cc1C(=O)NCCN1CCOCC1` [MGB-BP-3] the MIC80 (Staphylococcus aureus [7]) was less than 0.2 µM.
`CN[C@H](CC(C)C)C(=O)N[C@H]1C(=O)N[C@@H](CC(N)=O)C(=O)N[C@H]2C(=O)N[C@H]3C(=O)N[C@H](C(=O)N[C@H](C(=O)O)c4cc(O)cc(O)c4-c4cc3ccc4O)[C@H](O)c3ccc(c(Cl)c3)Oc3cc2cc(c3O[C@@H]2O[C@H](CO)[C@@H](O)[C@H](O)[C@H]2O[C@H]2C[C@](C)(N)[C@H](O)[C@H](C)O2)Oc2ccc(cc2Cl)[C@H]1O` [VANCOMYCIN] showed an MIC (Clostridioides difficile [3]) of 0.25 µg/mL (≈ 0.173 µM), an MIC50 (Clostridioides difficile [5]) of 1 µg/mL (≈ 0.69 µM) and an MIC (Clostridioides difficile [8]) of 0.25 µg/mL (≈ 0.173 µM).
`C[C@@H]1CN2c3c(cc4c(N5C(=O)OC[C@@H]5C)noc4c3F)CC3(C(=O)NC(=O)NC3=O)[C@H]2[C@H](C)O1` [ZOLIFLODACIN] gave an MIC (Mycoplasma genitalium) of less than 1 µg/mL, an MIC (Chlamydia trachomatis) of 0.5 µg/mL (≈ 1.03 µM) and an MIC90 (Neisseria gonorrhoeae) of 0.125 µg/mL (≈ 0.256 µM).
